The text below walks through data of ChEMBL document CHEMBL6103658, “Designing Macrocyclic Kinase Inhibitors Using Macrocycle Scaffold Hopping with Reinforced Learning (Macro-Hop)” (J Med Chem, 2025).

Series [1] can be described thus: Inhibition of cell viability of HEK293T cells incubated for 72 hrs by CCK8 assay. The class given is toxicity, cell-based, HEK-293T. The following applies: human.
The nature of series [2]: cells. As to conditions: Mus musculus, BaF3, 72 h; call rule not given here.
Series [3] in a line: cells. The following applies: Mus musculus, BaF3, 72 h. This is another data set of the same source.
A short description of series [4]: Induction of apoptosis in mouse BaF3 cells expressing PDGFR-alpha D842V mutant (unknown origin) assessed as late apoptotic cells at 40 nM incubated for 48 hrs by V-PE/7-AAD staining based flow cytometry (reference value: 2.77 %). The class given is functional.
The nature of series [5]: Induction of apoptosis in mouse BaF3 cells expressing PDGFR-alpha D842V mutant (unknown origin) assessed as necrotic cells at 40 nM incubated for 48 hrs by V-PE/7-AAD staining based flow cytometry (reference value: 0.75 %). The class given is functional.
Series [6] can be described thus: Induction of apoptosis in mouse BaF3 cells expressing PDGFR-alpha D842V mutant (unknown origin) assessed as early apoptotic cells at 40 nM incubated for 48 hrs by V-PE/7-AAD staining based flow cytometry (reference value: 4.20 %). The class given is functional.
The nature of series [7]: Induction of cell cycle arrest in mouse BaF3 cells expressing PDGFR-alpha D842V mutant (unknown origin) assessed as accumulation at G0/G1 phase at 40 nM incubated for 24 hrs by PI staining based flow cytometry (reference value: 51.77 %). The class given is functional.
A short description of series [8]: Induction of apoptosis in mouse BaF3 cells expressing PDGFR-alpha D842V mutant (unknown origin) assessed as early apoptotic cells at 1000 nM incubated for 48 hrs by V-PE/7-AAD staining based flow cytometry (reference value: 4.20 %). The class given is functional.
A short description of series [9]: Induction of cell cycle arrest in mouse BaF3 cells expressing PDGFR-alpha D842V mutant (unknown origin) assessed as accumulation at G2/M phase at 40 nM incubated for 24 hrs by PI staining based flow cytometry (reference value: 34.85 %). The class given is functional.
Series [10] can be described thus: Induction of apoptosis in mouse BaF3 cells expressing PDGFR-alpha D842V mutant (unknown origin) assessed as late apoptotic cells at 1000 nM incubated for 48 hrs by V-PE/7-AAD staining based flow cytometry (reference value: 2.77 %). The class given is functional.
Series [11] is described as follows: Induction of apoptosis in mouse BaF3 cells expressing PDGFR-alpha D842V mutant (unknown origin) assessed as viable cells at 1000 nM incubated for 48 hrs by V-PE/7-AAD staining based flow cytometry (reference value: 92.28 %). As to conditions: read-out: Activity. The class given is functional.
A short description of series [12]: Induction of cell cycle arrest in mouse BaF3 cells expressing PDGFR-alpha D842V mutant (unknown origin) assessed as accumulation at G0/G1 phase at 200 nM incubated for 24 hrs by PI staining based flow cytometry (reference value: 51.77 %). The class given is functional.
Series [13] is described as follows: Induction of apoptosis in mouse BaF3 cells expressing PDGFR-alpha D842V mutant (unknown origin) assessed as necrotic cells at 1000 nM incubated for 48 hrs by V-PE/7-AAD staining based flow cytometry (reference value: 0.75 %). The class given is functional.
A short description of series [14]: Induction of cell cycle arrest in mouse BaF3 cells expressing PDGFR-alpha D842V mutant (unknown origin) assessed as accumulation at S phase at 1000 nM incubated for 24 hrs by PI staining based flow cytometry (reference value: 12.00 %). The class given is functional.
A short description of series [15]: Induction of apoptosis in mouse BaF3 cells expressing PDGFR-alpha D842V mutant (unknown origin) assessed as late apoptotic cells at 200 nM incubated for 48 hrs by V-PE/7-AAD staining based flow cytometry (reference value: 2.77 %). The class given is functional.
A short description of series [16]: Induction of cell cycle arrest in mouse BaF3 cells expressing PDGFR-alpha D842V mutant (unknown origin) assessed as accumulation at S phase at 200 nM incubated for 24 hrs by PI staining based flow cytometry (reference value: 12.00 %). The class given is functional.
A short description of series [17]: Induction of cell cycle arrest in mouse BaF3 cells expressing PDGFR-alpha D842V mutant (unknown origin) assessed as accumulation at G0/G1 phase at 1000 nM incubated for 24 hrs by PI staining based flow cytometry (reference value: 51.77 %). The class given is functional.
A short description of series [18]: Induction of apoptosis in mouse BaF3 cells expressing PDGFR-alpha D842V mutant (unknown origin) assessed as viable cells at 40 nM incubated for 48 hrs by V-PE/7-AAD staining based flow cytometry (reference value: 92.28 %). The class given is functional. The following applies: read-out: Activity.
Series [19] can be described thus: Induction of cell cycle arrest in mouse BaF3 cells expressing PDGFR-alpha D842V mutant (unknown origin) assessed as accumulation at G2/M phase at 1000 nM incubated for 24 hrs by PI staining based flow cytometry (reference value: 34.85 %). The class given is functional.
Series [20] can be described thus: Induction of cell cycle arrest in mouse BaF3 cells expressing PDGFR-alpha D842V mutant (unknown origin) assessed as accumulation at G2/M phase at 200 nM incubated for 24 hrs by PI staining based flow cytometry (reference value: 34.85 %). The class given is functional.
Series [21] in a line: Induction of apoptosis in mouse BaF3 cells expressing PDGFR-alpha D842V mutant (unknown origin) assessed as early apoptotic cells at 200 nM incubated for 48 hrs by V-PE/7-AAD staining based flow cytometry (reference value: 4.20 %). The class given is functional.
Series [22] is described as follows: Induction of cell cycle arrest in mouse BaF3 cells expressing PDGFR-alpha D842V mutant (unknown origin) assessed as accumulation at S phase at 40 nM incubated for 24 hrs by PI staining based flow cytometry (reference value: 12.00 %). The class given is functional.
A short description of series [23]: Induction of apoptosis in mouse BaF3 cells expressing PDGFR-alpha D842V mutant (unknown origin) assessed as viable cells at 200 nM incubated for 48 hrs by V-PE/7-AAD staining based flow cytometry (reference value: 92.28 %). The class given is functional. The following applies: read-out: Activity.
In a further series the test system is BaF3. The following applies: Mus musculus, dose <= 1000.0 nM.
A short description of series [24]: Induction of apoptosis in mouse BaF3 cells expressing PDGFR-alpha D842V mutant (unknown origin) assessed as necrotic cells at 200 nM incubated for 48 hrs by V-PE/7-AAD staining based flow cytometry (reference value: 0.75 %). The class given is functional.
For series [25], the target named is T1, Platelet-derived growth factor receptor alpha (Homo sapiens, UniProt P16234, D842V). Put plainly: Inhibition of PDGFR-alpha D842V mutant (unknown origin) using Tyr 04 peptide as substrate incubated for 1 hr in presence of ATP by FRET-based Z'-Lyte assay.
The target in series [26] is T1, Platelet-derived growth factor receptor alpha. Put plainly: Inhibition of PDGFR-alpha D842V mutant (unknown origin) expressed in mouse BaF3 cells. The class given is cell-based.

T1 sequence (P16234 24-1089 D842V limits assumed): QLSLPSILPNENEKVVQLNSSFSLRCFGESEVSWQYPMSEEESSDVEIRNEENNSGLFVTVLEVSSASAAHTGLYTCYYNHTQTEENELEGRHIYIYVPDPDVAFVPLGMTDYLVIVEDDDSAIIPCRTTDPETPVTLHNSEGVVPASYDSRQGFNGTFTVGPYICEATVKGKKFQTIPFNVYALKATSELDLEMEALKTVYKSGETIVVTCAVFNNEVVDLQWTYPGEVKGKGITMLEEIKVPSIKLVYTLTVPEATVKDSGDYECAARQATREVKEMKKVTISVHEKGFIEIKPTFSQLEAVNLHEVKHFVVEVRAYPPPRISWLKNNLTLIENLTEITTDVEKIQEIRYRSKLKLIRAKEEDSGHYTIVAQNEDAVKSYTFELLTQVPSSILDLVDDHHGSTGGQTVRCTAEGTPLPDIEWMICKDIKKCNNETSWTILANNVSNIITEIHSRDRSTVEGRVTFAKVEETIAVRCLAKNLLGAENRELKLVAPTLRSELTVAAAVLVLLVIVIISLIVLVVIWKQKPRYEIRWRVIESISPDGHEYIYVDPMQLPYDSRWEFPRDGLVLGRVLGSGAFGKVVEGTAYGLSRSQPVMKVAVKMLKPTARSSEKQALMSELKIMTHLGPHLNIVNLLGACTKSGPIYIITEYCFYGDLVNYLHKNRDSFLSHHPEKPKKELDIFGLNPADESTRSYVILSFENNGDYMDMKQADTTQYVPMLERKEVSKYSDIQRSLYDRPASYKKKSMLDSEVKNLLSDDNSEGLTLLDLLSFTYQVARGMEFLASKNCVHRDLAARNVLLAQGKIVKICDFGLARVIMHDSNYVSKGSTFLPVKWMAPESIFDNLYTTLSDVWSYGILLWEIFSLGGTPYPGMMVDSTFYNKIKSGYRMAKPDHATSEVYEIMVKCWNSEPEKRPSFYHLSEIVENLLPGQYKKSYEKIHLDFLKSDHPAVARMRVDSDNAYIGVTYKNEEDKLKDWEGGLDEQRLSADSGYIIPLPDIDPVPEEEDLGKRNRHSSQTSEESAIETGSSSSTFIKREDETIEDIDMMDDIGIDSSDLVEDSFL

The compound `CC1(COc2ccc3c(c2)ncn3-c2ccc3cccc(N4CCC(N)CC4)c3n2)COC1` [CRENOLANIB] gave an IC50 at 72 h in series [1] of 1.68 µM. In addition, the IC50 in “cells [2]” amounted to 0.407 µM; in “cells [3]”, 0.0237 µM.
`c1cc2c3nc(ccc3c1)-n1cnc3ccc(cc31)OCCNC1CCN2CC1`: the Activity in series [4] was 2.23%; in [5], 0.06%; in [6], 3.2%; in series [7], 54.31%; in [8], 24.41%; in series [9] it was 34.25%. The Activity in series [10] is given as 6.67%; in series [12], 60.03%; in series [13] it was 0.07%; in series [14], 7.21%; in series [15], 2.27%; in series [16] it was 7.5%. Also, the Activity worked out at 65.32% in series [17]; 26.13% in series [19]; 31.42% in [20]; 8.22% in [21]; 9.94% in series [22]; 0.14% in [24]. Also, the viability at 1 µM in [11] worked out at 68.8%. In series [1], this compound showed a half-inhibitory concentration (IC50) at 72 h of 1.05 µM. Further, in series [18], the viability at 0.04 µM came out at 94.5%. Besides, the figures for the IC50 in “cells [2]” and in the series “cells [3]” were 0.0641 µM and 0.0276 µM, respectively. In addition, in series [23], the viability at 0.2 µM amounted to 89.4%. Also, in the series on BaF3, the inhibition entry was “Not active; Less Pronounced As Compared To Avapritinib”.
Regarding `Clc1cnc2nc1N1CCC(CC1)NCCCOc1ccc3ncn-2c3c1`, the IC50 was greater than 10 µM in [25] and greater than 1 µM in [26].
